This is an account of results in US7678538B2, “Disinfection of biological fluids using asymmetric cyanine dyes” (American National Red Cross, priority 2005, dated 2010).

For series [1], the system named is model viruses. The conditions noted are these: dimethylmethylene blue phototreatment with quinacrine as competitive membrane binding inhibitor; cited from earlier work.
The subject of series [2] is Staphylococcus epidermidis. Kind of series: Bacteria photoinactivation in RBC suspension, colony count. It counts as cell-based. The conditions noted are these: 80 μM TO, 7.4 J/cm^2 cool white light, 20% hematocrit RBCs, 60 min incubation.
In series [3] the test system is RBCs.
Series [4] concerns Pseudomonas fluorescens. Kind of series: Bacteria photoinactivation in RBC suspension, colony count. The class given is cell-based. The note with it: 80 μM TO, 7.4 J/cm^2 cool white light, 20% hematocrit RBCs, 60 min incubation.
In series [5] the test system is intracellular HIV. Nature of the series: HIV photoinactivation in RBC suspension, CCRF-CEM coculture and p24 ELISA. It counts as cell-based, HIV-1. The note with it: 80 μM TO, 7.4 J/cm^2 cool white light, 20% hematocrit RBCs, 60 min incubation. Background: ELISA stands for enzyme-linked immunosorbent assay.
Series [6] relates to Serratia marcescens. Kind of series: Bacteria photoinactivation in RBC suspension, colony count. It counts as cell-based. The conditions noted are these: 80 μM TO, 7.4 J/cm^2 cool white light, 20% hematocrit RBCs, 60 min incubation.
The subject of series [7] is Escherichia coli. The description is as above. The note with it: 80 μM TO, 7.4 J/cm^2 cool white light, 20% hematocrit RBCs, 60 min incubation. It counts as cell-based.
Series [8] relates to PRV. It counts as cell-based, Pseudorabies virus. The note with it: 80 μM TO, 7.4 J/cm^2 cool white light, 20% hematocrit RBCs, 60 min incubation.
Series [9] deals with Deinococcus radiodurans. Nature of the series: Bacteria photoinactivation in RBC suspension, colony count. The note with it: 80 μM TO, 7.4 J/cm^2 cool white light, 20% hematocrit RBCs, 60 min incubation. It counts as cell-based.
Series [10] has as its system BVDV. It counts as cell-based, Bovine viral diarrhea virus.
Series [11] relates to Yersinia enterocolitica. Nature of the series: Bacteria photoinactivation in RBC suspension, colony count. The class given is cell-based. The conditions noted are these: 80 μM TO, 7.4 J/cm^2 cool white light, 20% hematocrit RBCs, 60 min incubation.
The subject of series [12] is VSV. The class given is cell-based. The note with it: 80 μM TO, 7.4 J/cm^2 cool white light, 20% hematocrit RBCs, 60 min incubation.
In series [13] the test system is bacteria. Nature of the series: Bacteria photoinactivation, tested species overall. It counts as cell-based. The conditions noted are these: 80 μM TO, 7.4 J/cm^2 cool white light. The procedure:
Viruses or bacteria were added into approximately 50-60% hematocrit RBCs with subsequent addition of additive solution and TO to obtain 20% final hematocrit containing 80 μM of the dye. The final volume of the pathogen spike was equal to 10% for mammalian viruses and equal to 1% for bacteriophage and bacteria. RBC suspensions containing dye were incubated for 60 minutes and 2 ml aliquots were transferred to polystyrene culture dishes (50 mm bottom diameter) to produce a 1 mm blood film. For some bacterial experiments, RBC suspensions were incubated for different times prior to illumination. […] A fluence rate of 8.2 mW/cm^2 was measured by an optical power meter (model 371, United Detector Technology, Hawthorn, Calif.) equipped with a silicone diode detector and radiometric filter (400-1000 nm, model 115-9, United Detector Technology). […]
We prepared bacterial stocks by inoculating a single colony into 5 mL of Luria broth (LB) and incubating cultures overnight under aerobic conditions at 30 or 37° C., depending on the strain. […] Colonies were counted after 24-72 hours of incubation at 30 or 37° C., with time and incubation temperature depending on the strain. Colonies were counted from all plates that contained between 1 and 750 colonies per plate. […]

In series [14] the test system is bacteriophage φ6. Nature of the series: Bacteriophage photoinactivation in RBC suspension, plaque assay. The conditions noted are these: 80 μM TO, 7.4 J/cm^2 cool white light, 20% hematocrit RBCs, 60 min incubation. The class given is cell-based. The method, then: Leukodepleted 20% hematocrit RBCs suspended in Erythrosol (RAS-2) were oxygenated, inoculated with test organisms, incubated with TO, and illuminated with 7.4 J/cm^2 of cool white light. Control and treated samples were analyzed by appropriate assay. Identically prepared, but uncontaminated samples were phototreated, concentrated to 45% hematocrit, and assayed for potassium leakage, hemolysis and ATP during storage.
Viruses or bacteria were added into approximately 50-60% hematocrit RBCs with subsequent addition of additive solution and TO to obtain 20% final hematocrit containing 80 μM of the dye. The final volume of the pathogen spike was equal to 10% for mammalian viruses and equal to 1% for bacteriophage and bacteria. […] A fluence rate of 8.2 mW/cm^2 was measured by an optical power meter (model 371, United Detector Technology, Hawthorn, Calif.) equipped with a silicone diode detector and radiometric filter (400-1000 nm, model 115-9, United Detector Technology). […]
All virus assays were individually tested for cytotoxicity and interference. […] Log10 reduction values were calculated by subtracting the log10 titer/mL of RBCs with viable virus after illumination, or the log10 limit of detection/mL of RBCs without viable virus after illumination, from the measured log10 titer/mL of unilluminated RBCs.

Series [15] concerns enveloped viruses. The class given is cell-based.
The test system of series [16] is Staphylococcus aureus. Kind of series: Bacteria photoinactivation in RBC suspension, colony count. The class given is cell-based. The note with it: 80 μM TO, 7.4 J/cm^2 cool white light, 20% hematocrit RBCs, 60 min incubation.
Series [17] concerns extracellular HIV. It counts as cell-based. The note with it: 80 μM TO, 7.4 J/cm^2 cool white light, 20% hematocrit RBCs, 60 min incubation.
The test system of series [18] is Serratia liquefaciens. Nature of the series: Bacteria photoinactivation in RBC suspension, colony count. It counts as cell-based. The note with it: 80 μM TO, 7.4 J/cm^2 cool white light, 20% hematocrit RBCs, 60 min incubation.

“And” between values parts separate entries of the source, which are not always exact repeats. Equal values may be shown once.

On to `Cc1cc(=[N+](C)C)cc2sc3cc(N(C)C)cc(C)c3nc1-2.[Cl-]` [dimethylmethylene blue], for which the “reduction of model viruses” value in [1] is over 6 log10.

For the compound `CN1/C(=C/c2cc[n+](C)c3ccccc23)Sc2ccccc21.Cc1ccc(S(=O)(=O)[O-])cc1` [TO, 1-methyl-4-[(3-methyl-2(3H)-benzothiazolylidene)methyl]quinoliniump-tosylate], the “Inactivation Log10, Staphylococcus epidermidis” value in series [2] is given as >7.0 (n = 4) log10. Also, in series [3], the “day 42 hemolysis in ADSOL additive solution” value turned out to be 1.6±0.6%; the “hemolysis levels during storage, TO versus TP phototreated RBCs” value is given as “similar”; the “hemolysis on day 42, TO maintained in the dark” value was determined as 0.31%. The “Inactivation Log10, Pseudomonas fluorescens” value in series [4] was 2.3 log10 and 2.3 ± 1.2 (n = 4) log10. For the same compound, the “Inactivation Log10, intracellular HIV” value in series [5] is on record as >6.3 (n = 3) log10. In addition, the “Inactivation Log10, Serratia marcescens” value in series [6] was 3.5 log10 and 3.5 ± 2.5 (n = 3) log10. Besides, the “Inactivation Log10, Escherichia coli” value in series [7] is 5.3 log10 and 5.3 ± 2.0 (n = 4) log10. The “Inactivation Log10, PRV” value in [8] is 5.4 log10 and 5.4±0.7 log10 and 5.4 ± 0.7 (n = 4) log10. Besides, the “Inactivation Log10, Deinococcus radiodurans” value in [9] is recorded as >6.8 (n = 3) log10. For the same compound, the “Inactivation Log10, BVDV” value in [10] is 6.2 log10 and 6.2±0.1 log10 and 6.2 ± 0.1 (n = 3) log10. The “Inactivation Log10, Yersinia enterocolitica” value in series [11] is 6.4 log10 and 6.4 ± 2.0 (n = 4) log10. For the same compound, the “Inactivation Log10, VSV” value in series [12] was 7.1 log10 and 7.1±0.2 log10 and 7.1 ± 0.2 (n = 4) log10. Besides, in series [13], the “inactivation of bacteria, another four (more resistant) species” value is 2-3 log10 and the “inactivation of bacteria, four (sensitive) species” value is 5-7 log10. For the same compound, the “Inactivation Log10, bacteriophage φ6” value in [14] is 6.7 log10 and 6.7±0.7 log10 and 6.7 ± 0.7 (n = 3) log10. The “inactivation of tested enveloped viruses” value in [15] is 5.1-7.4 log10. Moreover, the “Inactivation Log10, Staphylococcus aureus” value in series [16] was 2.4 log10 and 2.4 ± 0.7 (n = 4) log10. In [17], the “Inactivation Log10, extracellular HIV” value is given as >6.5 (n = 3) log10. In addition, in series [18], the “Inactivation Log10, Serratia liquefaciens” value is 2.8 log10 and 2.8 ± 0.6 (n = 4) log10.
